{"source": "paper PMC10033419", "about": "“Blocking NS3–NS4B interaction inhibits dengue virus in non-human primates” (Nature, 2023)", "system": "DENV-2 RL strain", "assay": "Day 3 viraemia model, high viral inoculum (10^6 PFU)", "format": "in vivo, AG129 mice", "conditions": "for Av Log 10 (average): group average; for Av Log 10 (Ave/Med: median): group median; for Copy number / Log 10 (copy number): individual animals, listed as 64281802-AAA", "key": {"[1]": {"conditions": "Study 1+2+3 compiled data, 0,2 mg/kg/d"}, "[2]": {"conditions": "Study 1+2+3 compiled data, 0,6 mg/kg/d"}, "[3]": {"conditions": "Study 1+2+3 compiled data, 2 mg/kg/d"}, "[4]": {"conditions": "Study 1+2+3 compiled data, 2 mg/kg/d, 2 mg/kg/day"}, "[5]": {"conditions": "Study 1+2+3 compiled data, 6 mg/kg/d"}, "[6]": {"conditions": "Study 1+2+3 compiled data, 6 mg/kg/d, 6 mg/kg/day"}, "[7]": {"conditions": "Study 1+2+3 compiled data, 20 mg/kg/d"}, "[8]": {"conditions": "Study 1+2+3 compiled data, 20 mg/kg/d, 20 mg/kg/day"}, "[9]": {"conditions": "Study 1+2+3 compiled data, 60 mg/kg/d"}, "[10]": {"conditions": "Study 1+2+3 compiled data, 60 mg/kg/d, 60 mg/kg/day"}}, "note": "Where “and” joins values, the source holds several entries; their conditions need not be identical. Equal values may be shown once.", "data": [{"smiles": "COc1cc(N[C@H](C(=O)c2c[nH]c3ccc(OC(F)(F)F)cc23)c2ccc(Cl)cc2OC)cc(S(C)(=O)=O)c1", "note": "[JNJ-1802]", "values": [{"measurement": "viraemia day 3 p.i., average Log 10", "setting": "0,3 mg/kg/d q.d.", "value": 6.63, "unit": "log10 viral RNA copies/mL"}, {"measurement": "viraemia day 3 p.i., median Log 10", "setting": "0,3 mg/kg/d q.d.", "value": 6.66, "unit": "log10 viral RNA copies/mL"}, {"measurement": "viraemia day 3 p.i., average Log 10", "setting": "3 mg/kg/d q.d.", "value": 3.84, "unit": "log10 viral RNA copies/mL"}, {"measurement": "viraemia day 3 p.i., median Log 10", "setting": "3 mg/kg/d q.d.", "value": 4.27, "unit": "log10 viral RNA copies/mL"}, {"measurement": "mice with undetectable viral RNA", "setting": "20 mg per kg per day b.i.d.", "value": "13 out of 14"}, {"measurement": "mice with undetectable viral RNA", "setting": "30 mg per kg q.d.", "value": "five out of eight"}, {"measurement": "viraemia day 3 p.i., average Log 10", "setting": "30 mg/kg/d q.d.", "value": 3.09, "unit": "log10 viral RNA copies/mL"}, {"measurement": "viraemia day 3 p.i., median Log 10", "setting": "30 mg/kg/d q.d.", "value": 2.59, "unit": "log10 viral RNA copies/mL"}, {"measurement": "mice with undetectable viral RNA", "setting": "60 mg per kg per day b.i.d.", "value": "four out of seven"}, {"measurement": "Av Log 10 (average)", "setting": "[1]", "value": 5.92}, {"measurement": "Av Log 10 (Ave/Med: median)", "setting": "[1]", "value": 6.05}, {"measurement": "Copy number", "setting": "[1]", "value": "1.86E+06 and 1.20E+06 and 1.13E+06 and 8.80E+05 and 2.24E+05 and 2.37E+06 and 1.58E+06 and 7.37E+04 and 5.97E+06 and 8.67E+05 and 1.42E+06 and 1.06E+06 and 9.43E+04"}, {"measurement": "Log 10 (copy number)", "setting": "[1]", "value": "6.27 and 6.08 and 6.05 and 5.94 and 5.35 and 6.38 and 6.20 and 4.87 and 6.78 and 6.15 and 6.03 and 4.97"}, {"measurement": "Av Log 10 (average)", "setting": "[2]", "value": 4.22}, {"measurement": "Av Log 10 (Ave/Med: median)", "setting": "[2]", "value": 4.52}, {"measurement": "Copy number", "setting": "[2]", "value": "3.93E+02"}, {"measurement": "Log 10 (copy number)", "setting": "[2]", "value": 2.59}, {"measurement": "Av Log 10 (average)", "setting": "[3]", "value": 4.68}, {"measurement": "Av Log 10 (Ave/Med: median)", "setting": "[3]", "value": 4.60}, {"measurement": "Copy number", "setting": "[4]", "value": "8.93E+05 and 4.00E+05 and 3.96E+05 and 1.24E+06 and 6.51E+05 and 1.32E+04 and 2.02E+05 and 2.06E+04"}, {"measurement": "Log 10 (copy number)", "setting": "[4]", "value": "5.95 and 5.60 and 6.09 and 5.81 and 3.95"}, {"measurement": "Av Log 10 (average)", "setting": "[5]", "value": 4.33}, {"measurement": "Av Log 10 (Ave/Med: median)", "setting": "[5]", "value": 4.37}, {"measurement": "Copy number", "setting": "[6]", "value": "5.85E+04 and 1.40E+05 and 1.03E+05 and 2.15E+04 and 1.94E+05 and 8.27E+04 and 1.06E+04 and 2.60E+04 and 9.12E+03 and 5.17E+03 and 3.62E+04 and 5.97E+03 and 3.93E+02"}, {"measurement": "Log 10 (copy number)", "setting": "[6]", "value": "4.77 and 5.15 and 5.01 and 4.33 and 5.29 and 4.92 and 4.03 and 4.41 and 3.96 and 3.71 and 4.56 and 4.11 and 3.78 and 2.59"}, {"measurement": "Av Log 10 (average)", "setting": "[7]", "value": 2.70}, {"measurement": "Av Log 10 (Ave/Med: median)", "setting": "[7]", "value": 2.59}, {"measurement": "Copy number", "setting": "[8]", "value": "1.05E+04 and 3.93E+02"}, {"measurement": "Log 10 (copy number)", "setting": "[8]", "value": "4.02 and 2.59"}, {"measurement": "Av Log 10 (average)", "setting": "[9]", "value": 3.05}, {"measurement": "Av Log 10 (Ave/Med: median)", "setting": "[9]", "value": 2.59}, {"measurement": "Copy number", "setting": "[10]", "value": "3.93E+02 and 1.22E+04 and 1.55E+03 and 5.28E+03"}, {"measurement": "Log 10 (copy number)", "setting": "[10]", "value": "2.59 and 4.09 and 3.19 and 3.72"}, {"measurement": "Av Log 10 (average)", "setting": "Study 1 - 160222, 2 mg/kg/d", "value": 5.30}, {"measurement": "Av Log 10 (Ave/Med: median)", "setting": "Study 1 - 160222, 2 mg/kg/d", "value": 5.60}, {"measurement": "Copy number", "setting": "Study 1 - 160222, 2 mg/kg/d", "value": "8.93E+05 and 4.00E+05 and 3.96E+05 and 1.24E+06 and 6.51E+05 and 1.32E+04 and 2.02E+05"}, {"measurement": "Log 10 (copy number)", "setting": "Study 1 - 160222, 2 mg/kg/d", "value": "5.95 and 5.60 and 6.09 and 5.81 and 3.95 and 4.12 and 5.30"}, {"measurement": "Av Log 10 (average)", "setting": "Study 1 - 160222, 6 mg/kg/d", "value": 4.74}, {"measurement": "Av Log 10 (Ave/Med: median)", "setting": "Study 1 - 160222, 6 mg/kg/d", "value": 4.84}, {"measurement": "Copy number", "setting": "Study 1 - 160222, 6 mg/kg/d", "value": "5.85E+04 and 1.40E+05 and 1.03E+05 and 2.15E+04 and 1.94E+05 and 8.27E+04 and 1.06E+04 and 2.60E+04"}, {"measurement": "Log 10 (copy number)", "setting": "Study 1 - 160222, 6 mg/kg/d", "value": "4.77 and 5.15 and 5.01 and 4.33 and 5.29 and 4.92 and 4.03 and 4.41"}, {"measurement": "Av Log 10 (average)", "setting": "Study 1 - 160222, 60 mg/kg/d", "value": 3.05}, {"measurement": "Av Log 10 (Ave/Med: median)", "setting": "Study 1 - 160222, 60 mg/kg/d", "value": 2.59}, {"measurement": "Copy number", "setting": "Study 1 - 160222, 60 mg/kg/d", "value": "3.93E+02 and 1.22E+04 and 1.55E+03 and 5.28E+03"}, {"measurement": "Log 10 (copy number)", "setting": "Study 1 - 160222, 60 mg/kg/d", "value": "2.59 and 4.09 and 3.19 and 3.72"}, {"measurement": "Av Log 10 (average)", "setting": "Study 2 - 160510, 0,6 mg/kg/d", "value": 4.52}, {"measurement": "Av Log 10 (Ave/Med: median)", "setting": "Study 2 - 160510, 0,6 mg/kg/d", "value": 4.66}, {"measurement": "Copy number", "setting": "Study 2 - 160510, 0,6 mg/kg/d", "value": "3.02E+04 and 4.20E+05 and 7.57E+04 and 6.60E+04 and 3.93E+02 and 1.74E+04 and 1.01E+05 and 3.12E+04"}, {"measurement": "Log 10 (copy number)", "setting": "Study 2 - 160510, 0,6 mg/kg/d", "value": "4.48 and 5.62 and 4.88 and 4.82 and 2.59 and 4.24 and 5.00 and 4.49"}, {"measurement": "Av Log 10 (average)", "setting": "Study 2 - 160510, 2 mg/kg/d", "value": 4.07}, {"measurement": "Av Log 10 (Ave/Med: median)", "setting": "Study 2 - 160510, 2 mg/kg/d", "value": 4.30}, {"measurement": "Copy number", "setting": "Study 2 - 160510, 2 mg/kg/d", "value": "2.06E+04 and 6.20E+04 and 1.87E+04 and 2.60E+04 and 3.93E+02 and 1.87E+05"}, {"measurement": "Log 10 (copy number)", "setting": "Study 2 - 160510, 2 mg/kg/d", "value": "4.31 and 4.28 and 4.79 and 4.27 and 4.41 and 2.59 and 5.27"}, {"measurement": "Av Log 10 (average)", "setting": "Study 2 - 160510, 6 mg/kg/d", "value": 3.78}, {"measurement": "Av Log 10 (Ave/Med: median)", "setting": "Study 2 - 160510, 6 mg/kg/d", "value": 3.87}, {"measurement": "Copy number", "setting": "Study 2 - 160510, 6 mg/kg/d", "value": "9.12E+03 and 5.17E+03 and 3.62E+04 and 5.97E+03 and 3.93E+02"}, {"measurement": "Log 10 (copy number)", "setting": "Study 2 - 160510, 6 mg/kg/d", "value": "3.96 and 3.71 and 4.56 and 4.11 and 3.78 and 2.59"}]}]}
